According to ChEMBL document CHEMBL5537148, “Discovery of (quinazolin-6-yl)benzamide derivatives containing a 6,7-dimethoxy-1,2,3,4-tetrahydroisoquinoline moiety as potent reversal agents against P-glycoprotein-mediated multidrug resistance” (Eur J Med Chem, 2024):
Activity calls are given as the source filed them. The calls are words filed in the database; no cut-off is given here.

How the values were obtained:
[1] = Reversal fold, ratio of adriamycin IC50 to adriamycin IC50 in presence of 0.1 uM test compound for reversal of adriamycin-mediated resistance in human MCF7/ADM cells by MTT method; format: functional
[2] = molecular target: ATP-dependent translocase ABCB1 (Homo sapiens, UniProt P08183); test: Inhibition of P-gp-mediated rhodamine-123 efflux in human MCF7/ADM cells assessed as increase in fluorescence intensity at 0.1 uM incubated for 6 hrs followed by Rh123 addition for 3 hrs by Fluorescence microplate reader analysis; format: cell-based; details: 9 h
MCF7/ADM [3] = test: Inhibition of cell migration in human MCF7/ADM cells at 0.1 uM incubated for 24 to 48 hrs in the presence of adriamycin by Wound healing assay; format: functional, cell-based; details: time 24-48 hrs
MCF7/ADM [4] = test: Inhibition of cell invasion in human MCF7/ADM cells at 0.1 uM incubated for 24 hrs in the presence of adriamycin by Transwell assay; format: functional, cell-based
MCF7/ADM [5] = test: Antitumor activity against human MCF7/ADM cells xenografted in BABL/c mouse assessed as decrease in tumor volume at 2 mg/kg, ip administered once every 3 days for 25 days in the presence of adriamycin; format: functional, organism-based; details: time 25.0 day
MCF7/ADM [6] = test: Antitumor activity against human MCF7/ADM cells xenografted in BABL/c mouse assessed as decrease in tumor weight at 2 mg/kg, ip administered once every 3 days for 25 days in the presence of adriamycin; format: functional, organism-based; details: time 25.0 day
[7] = Antitumor activity against human MCF7/ADM cells xenografted in BABL/c mouse assessed as tumor growth inhibition at 2 mg/kg, ip administered once every 3 days for 25 days in the presence of adriamycin relative to control; format: functional; details: 600 h, time 25 day, read-out: TGI
[8] = Toxicity in Balb/c mouse xenografted with human MCF7/ADR cells assessed as liver cell necrosis at 2 mg/kg, ip administered once every 3 days for 25 days in presence of adriamycin by H&E staining based analysis; format: organism-based, NCI/ADR-RES; details: in vivo, 600 h, time 25 day
[9] = Toxicity in Balb/c mouse xenografted with human MCF7/ADR cells assessed as kidney cell necrosis at 2 mg/kg, ip administered once every 3 days for 25 days in presence of adriamycin by H&E staining based analysis; format: organism-based, NCI/ADR-RES; details: in vivo, 600 h, time 25 day
[10] = Toxicity in Balb/c mouse xenografted with human MCF7/ADR cells assessed as liver cell necrosis at 10 mg/kg, ip administered once every 3 days for 25 days by H&E staining based analysis; format: organism-based, NCI/ADR-RES; details: in vivo, 600 h, time 25 day
[11] = Toxicity in Balb/c mouse xenografted with human MCF7/ADR cells assessed as kidney cell necrosis at 10 mg/kg, ip administered once every 3 days for 25 days by H&E staining based analysis; format: organism-based, NCI/ADR-RES; details: in vivo, 600 h, time 25 day
MCF7/ADM [12] = test: Effect on P-gp expression in human MCF7/ADM cells at 0.1 uM by Western blot analysis; format: functional, cell-based
MCF7/ADM [13] = test: Induction of apoptosis in human MCF7/ADM cells incubated for 48 hrs in presence of adriamycin by Annexin V-FITC/PI staining based flow cytometric analysis; format: functional, cell-based; details: dose 0.1-1 µM
MCF7/ADM [14] = test: Inhibition of colony formation in human MCF7/ADM cells at 0.1 uM incubated for 15 days with fresh media replacement for every 2 days in the presence of adriamycin by crystal violet staining based imaging analysis; format: functional, cell-based; details: time 15.0 day
MCF7/ADM [15] = test: Antitumor activity against human MCF7/ADM cells xenografted in BABL/c mouse assessed as increase in tumor degeneration at 2 mg/kg, ip administered once every 3 days for 25 days in the presence of adriamycin by H&E staining based analysis; format: functional, organism-based; details: time 25.0 day
MCF7/ADM [16] = test: Antitumor activity against human MCF7/ADM cells xenografted BABL/c mouse model assessed as increase in tumor necrosis at 2 mg/kg, ip administered once every 3 days for 25 days in the presence of adriamycin by H&E staining based analysis; format: functional, organism-based; details: time 25.0 day

Sequence of ATP-dependent translocase ABCB1 (P08183 whole entry): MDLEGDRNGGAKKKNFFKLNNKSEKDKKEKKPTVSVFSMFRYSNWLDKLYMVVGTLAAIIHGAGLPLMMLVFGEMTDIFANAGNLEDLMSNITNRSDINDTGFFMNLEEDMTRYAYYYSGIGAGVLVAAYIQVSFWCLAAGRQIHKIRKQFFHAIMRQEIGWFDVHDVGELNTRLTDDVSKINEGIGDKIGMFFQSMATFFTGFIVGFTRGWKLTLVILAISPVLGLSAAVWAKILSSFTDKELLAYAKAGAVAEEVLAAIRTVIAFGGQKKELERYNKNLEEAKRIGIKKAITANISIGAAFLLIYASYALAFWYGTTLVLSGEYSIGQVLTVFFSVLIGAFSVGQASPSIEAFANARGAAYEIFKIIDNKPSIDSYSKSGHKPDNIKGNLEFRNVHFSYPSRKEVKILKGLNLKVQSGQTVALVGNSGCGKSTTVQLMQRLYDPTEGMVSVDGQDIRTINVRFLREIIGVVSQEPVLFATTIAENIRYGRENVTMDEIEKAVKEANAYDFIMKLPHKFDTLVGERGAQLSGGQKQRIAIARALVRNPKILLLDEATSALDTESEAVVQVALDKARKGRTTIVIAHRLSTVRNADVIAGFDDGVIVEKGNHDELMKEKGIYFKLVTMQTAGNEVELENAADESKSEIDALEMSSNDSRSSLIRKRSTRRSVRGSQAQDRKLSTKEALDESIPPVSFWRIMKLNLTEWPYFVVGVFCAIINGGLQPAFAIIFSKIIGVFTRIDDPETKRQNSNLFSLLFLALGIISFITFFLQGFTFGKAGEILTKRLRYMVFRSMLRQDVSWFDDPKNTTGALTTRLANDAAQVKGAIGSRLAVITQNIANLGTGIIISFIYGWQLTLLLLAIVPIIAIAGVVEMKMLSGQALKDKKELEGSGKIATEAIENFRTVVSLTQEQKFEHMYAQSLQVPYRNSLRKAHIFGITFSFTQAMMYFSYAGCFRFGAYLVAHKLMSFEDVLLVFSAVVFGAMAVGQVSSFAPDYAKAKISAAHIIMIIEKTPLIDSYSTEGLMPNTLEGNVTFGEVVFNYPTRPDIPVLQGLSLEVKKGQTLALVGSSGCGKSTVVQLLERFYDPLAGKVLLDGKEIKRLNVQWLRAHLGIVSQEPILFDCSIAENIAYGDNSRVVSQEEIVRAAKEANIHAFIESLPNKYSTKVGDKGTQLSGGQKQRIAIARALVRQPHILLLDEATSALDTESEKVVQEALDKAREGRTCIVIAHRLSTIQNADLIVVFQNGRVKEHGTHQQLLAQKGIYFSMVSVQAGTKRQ

## COc1cc2c(cc1OC)CN(CCNC(=O)c1ccc(-c3ccc4ncnc(Nc5ccccc5Br)c4c3)cc1)CC2
[1]
  Ratio IC50: 16.6

## COc1cc2c(cc1OC)CN(CCNC(=O)c1ccc(-c3ccc4ncnc(Nc5ccc(Br)cc5)c4c3)cc1)CC2
[1]
  Ratio IC50: 16.3

## COc1cc2c(cc1OC)CN(CCNC(=O)c1ccc(-c3ccc4ncnc(NCc5cccc(F)c5)c4c3)cc1)CC2
[1]
  Ratio IC50: 22.2

## COC(=O)c1ccc(Nc2ncnc3ccc(-c4ccc(C(=O)NCCN5CCc6cc(OC)c(OC)cc6C5)cc4)cc23)cc1
[1]
  Ratio IC50: 10.1

## COc1cc2c(cc1OC)CN(CCNC(=O)c1ccc(-c3ccc4ncnc(NCc5cccc(Br)c5)c4c3)cc1)CC2
[1]
  Ratio IC50: 1.2

## COc1ccc(Nc2ncnc3ccc(-c4ccc(C(=O)NCCN5CCc6cc(OC)c(OC)cc6C5)cc4)cc23)cc1F
[1]
  Ratio IC50: 25.2

## COc1cc2c(cc1OC)CN(CCNC(=O)c1ccc(-c3ccc4ncnc(Nc5ccc(Cl)cc5)c4c3)cc1)CC2
[1]
  Ratio IC50: 4.3

## COc1cc2c(cc1OC)CN(CCNC(=O)c1ccc(-c3ccc4ncnc(Nc5cccc(Cl)c5)c4c3)cc1)CC2
[1]
  Ratio IC50: 11.6

## COc1cc2c(cc1OC)CN(CCNC(=O)c1ccc(-c3ccc4ncnc(Nc5ccccc5C)c4c3)cc1)CC2
[1]
  Ratio IC50: 41.3

## COc1cc2c(cc1OC)CN(CCc1ccc(NC(=O)c3cc(OC)c(OC)cc3NC(=O)c3cnc4ccccc4c3)cc1)CC2 [TARIQUIDAR]
[1]
  Ratio IC50: 11
[2]
  inhibition (INH): Active
MCF7/ADM [3]
  inhibition: Active
MCF7/ADM [4]
  inhibition: Active
MCF7/ADM [5]
  Activity: Active
MCF7/ADM [6]
  Activity: Active
[7]
  inhibition in vivo at 2 mg/kg: 49.4%
[8]
  Activity: Non-Toxic
[9]
  Activity: Non-Toxic

## COc1cc2c(cc1OC)CN(CCNC(=O)c1ccc(-c3ccc4ncnc(NCc5ccc(F)cc5)c4c3)cc1)CC2
[1]
  Ratio IC50: 12.1

## COc1cc2c(cc1OC)CN(CCNC(=O)c1ccc(-c3ccc4ncnc(Nc5cccc(F)c5)c4c3)cc1)CC2
[1]
  Ratio IC50: 5.3

## COc1cc2c(cc1OC)CN(CCNC(=O)c1ccc(-c3ccc4ncnc(NCc5cccc(Cl)c5)c4c3)cc1)CC2
[1]
  Ratio IC50: 1.5

## COc1cccc2c1C(=O)c1c(O)c3c(c(O)c1C2=O)C[C@@](O)(C(=O)CO)C[C@@H]3O[C@H]1C[C@H](N)[C@H](O)[C@H](C)O1.Cl [DOXORUBICIN HYDROCHLORIDE]
[10]
  Activity: Non-Toxic
[11]
  Activity: Non-Toxic

## COc1cc2c(cc1OC)CN(CCNC(=O)c1ccc(-c3ccc4ncnc(Nc5ccc(C)cc5)c4c3)cc1)CC2
[1]
  Ratio IC50: 3.1

## COc1cc2c(cc1OC)CN(CCNC(=O)c1ccc(-c3ccc4ncnc(NCc5ccccc5)c4c3)cc1)CC2
[1]
  Ratio IC50: 3.3

## COc1cc2c(cc1OC)CN(CCNC(=O)c1ccc(-c3ccc4ncnc(Nc5cccc(Br)c5)c4c3)cc1)CC2
[1]
  Ratio IC50: 3.4

## COc1cc2c(cc1OC)CN(CCNC(=O)c1ccc(-c3ccc4ncnc(Nc5cccc(C)c5)c4c3)cc1)CC2
[1]
  Ratio IC50: 24.3

## COc1ccccc1Nc1ncnc2ccc(-c3ccc(C(=O)NCCN4CCc5cc(OC)c(OC)cc5C4)cc3)cc12
[1]
  Ratio IC50: 83.4
[2]
  inhibition (INH): Active
MCF7/ADM [12]
  Activity: inactive
MCF7/ADM [13]
  Activity: Dose-Dependent Effect
MCF7/ADM [14]
  inhibition: Active
MCF7/ADM [3]
  inhibition: Active
MCF7/ADM [4]
  inhibition: Active
MCF7/ADM [5]
  Activity: Active
MCF7/ADM [6]
  Activity: Active
[7]
  inhibition in vivo at 2 mg/kg: 69.7%
MCF7/ADM [15]
  Activity: Active
MCF7/ADM [16]
  Activity: Active
[8]
  Activity: Non-Toxic
[9]
  Activity: Non-Toxic

## COc1cc2c(cc1OC)CN(CCNC(=O)c1ccc(-c3ccc4ncnc(NCc5ccc(Cl)cc5)c4c3)cc1)CC2
[1]
  Ratio IC50: 9.3

## COc1cc2c(cc1OC)CN(CCNC(=O)c1ccc(-c3ccc4ncnc(NCc5ccccc5F)c4c3)cc1)CC2
[1]
  Ratio IC50: 7.2

## COc1cc2c(cc1OC)CN(CCNC(=O)c1ccc(-c3ccc4ncnc(Nc5ccccc5Cl)c4c3)cc1)CC2
[1]
  Ratio IC50: 13.3

## COc1cc2c(cc1OC)CN(CCNC(=O)c1ccc(-c3ccc4ncnc(Nc5ccccc5F)c4c3)cc1)CC2
[1]
  Ratio IC50: 2.4

## COC(=O)c1cccc(Nc2ncnc3ccc(-c4ccc(C(=O)NCCN5CCc6cc(OC)c(OC)cc6C5)cc4)cc23)c1
[1]
  Ratio IC50: 2.4

## COc1cc2c(cc1OC)CN(CCNC(=O)c1ccc(-c3ccc4ncnc(Nc5cccc(C#N)c5)c4c3)cc1)CC2
[1]
  Ratio IC50: 2.5

## COc1cc2c(cc1OC)CN(CCNC(=O)c1ccc(-c3ccc4ncnc(Nc5ccccc5)c4c3)cc1)CC2
[1]
  Ratio IC50: 3.5

## COc1cccc(Nc2ncnc3ccc(-c4ccc(C(=O)NCCN5CCc6cc(OC)c(OC)cc6C5)cc4)cc23)c1
[1]
  Ratio IC50: 1.3

## COc1cc2c(cc1OC)CN(CCNC(=O)c1ccc(-c3ccc4ncnc(Nc5ccc(F)cc5)c4c3)cc1)CC2
[1]
  Ratio IC50: 14.1
